From patent publication US12691070B2, “Cationic lipids and preparation method thereof” (RiboX Therapeutics HK Limited, priority 2023, dated 2026)

What was measured:
Hep G2 cells [1] = assay: In vitro expression of firefly-luciferase, Hep G2; assay type: cell-based
Method in brief: (§1)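 First, cells were dosed with RNA lipid nanoparticles encoding firefly luciferase (100 ng/mL). Second, at 72 h they were washed and lysed. Third, lysate luciferase activity was read with a luminometer.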

[2] = LNP size and polydispersity index (PDI) by dynamic light scattering; assay type: physicochemical; details: for Size: in nm (unit assumed)
Method in brief: (§2)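 Dynamic light scattering and zeta potential measurements were run on PBS-dialyzed LNPs, which had been formed by microfluidic mixing at 12 ml/min with final lipid at 1.5 mM to 6 mM. RNA content and percent encapsulation were determined by Ribogreen with and without Triton X-100.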

Hep G2 cells [3] = assay: In vitro toxicity (CellTiter-Glo cell viability), Hep G2; assay type: cell-based;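 further: percent of untreated cells luminescence signal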
Method in brief: (§3)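 Toxicity of RNA-LNPs (1 μg/mL) is reported as cell viability, calculated from CellTiter-Glo luminescence measured at 72 hours after transfection.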

RAW 264.7 cells [4] = assay: In vitro toxicity (CellTiter-Glo cell viability), RAW 264.7; assay type: cell-based;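 further: percent of untreated cells luminescence signal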
Method in brief: as §3

RAW 264.7 cells [5] = assay: In vitro expression of firefly-luciferase, RAW 264.7; assay type: cell-based
Method in brief: as §1

[6] = LNP zeta potential (Zetasizer); assay type: physicochemical
Method in brief: as §2

BALB/C mice [7] = assay: In vivo expression, whole-body luminescence (IVIS)
Method: 6-8 week old, female BALB/C mice were injected with 0.05 mg*kg-1 of RNA-LNPs encoding for firefly-luciferase by intravenous injection. At 6 hours post injection, animals were intraperitoneally injected with 15 mg/ml of Luciferin substrate and whole-body luminescence was determined by a bioluminescent in vivo imaging system (IVIS).

[8] = RNA encapsulation efficacy by Quant-IT Ribogreen kit; assay type: physicochemical; details: for Encapsulation Efficiency %: LNP with cirRNA (SEQ ID NO: 1); for Encapsulation Efficiency: LNP with mRNA (SEQ ID NO: 2)
Method in brief: as §2

[9] = Long term stability analysis / stability under LNP synthesis conditions (Ethanol and PBS pH=7.4); assay type: physicochemical; details: after incorporation into lipid nanoparticles / LNP synthesis conditions
Method: The purity of the lipids was tested, after they were incorporated into lipid nanoparticles, only to find that the Reference Lipids were cleaved under LNP synthesis conditions, either via transesterification or hydrolysis.

MCP-I = MCP-I cytokine elevation in serum; assay type: in vivo; details: cirRNA (SEQ ID NO: 1) LNPs, mice
Method: 6-8 week old, female BALB/C mice were injected with 0.5 mg*kg-1 of RNA LNPs by intravenous injection. At 2 and 24 hours post injection, animals were bled and sera concentrations of MCP-I were determined by an immunoassay (Luminex).

BALB/C mice [10] = assay: Local tolerance determination by footpad injection; assay type: in vivo; details: cirRNA (SEQ ID NO: 1) LNP, 0.175 mg*kg-1 subcutaneous into the footpad, 24 hours post minus prior
Method: 6-8 week old, female BALB/C mice were injected with 0.175 mg*kg-1 RNA LNPs by subcutaneous injection into the footpad. Prior to, and 24 hours post injections, injected footpad thickness was determined by a caliper.

[11] = tested on: Alanine Aminotransferase (ALT); assay: Liver enzyme elevation in serum, ALT; assay type: in vivo; details: cirRNA (SEQ ID NO: 1) LNPs, BALB/C mice, intravenous 0.5 MPK
Method: (§4) 6-8 week old, female BALB/C mice were injected with 0.5 mg*kg-1 of RNA LNPs by intravenous injection. At 2 and 24 hours post injection, animals were bled and sera concentrations of Alanine Aminotransferase (ALT) and Aspartate Aminotransferase (AST) were determined by a blood chemistry analyzer.

[12] = tested on: Aspartate Aminotransferase (AST); assay: Liver enzyme elevation in serum, AST; assay type: in vivo; details: cirRNA (SEQ ID NO: 1) LNPs, BALB/C mice, intravenous 0.5 MPK
Method: as §4

[13] = cirRNA (SEQ ID NO: 1) LNPs, firefly-luciferase luminescence, Hep G2 cells
[14] = mRNA (SEQ ID NO: 2) LNP, 100 ng/mL, 72 hours post transfection, luciferase activity
[15] = mRNA (SEQ ID NO: 2) LNP, 1 μg/mL, 72 hours post transfection
[16] = mRNA (SEQ ID NO: 2) LNP, 0.05 mg*kg-1 intravenous, 6 hours post injection
[17] = cirRNA (SEQ ID NO: 1) LNPs, Hep G2 cells
[18] = cirRNA (SEQ ID NO: 1) LNPs, RAW 264.7 cells
[19] = cirRNA (SEQ ID NO: 1) LNPs, firefly-luciferase luminescence, RAW 264.7 cells
[20] = cirRNA (SEQ ID NO: 1) LNPs, BALB/C mice

SMILES	In vitro Expression HepG2 (Hep G2 cells [1]; [13])	In vitro Expression HepG2 (Hep G2 cells [1]; [14])	PDI ([2]; LNP with cirRNA (SEQ ID NO: 1))	Size ([2]; LNP with cirRNA (SEQ ID NO: 1))	PDI ([2]; LNP with mRNA (SEQ ID NO: 2))	Size ([2]; LNP with mRNA (SEQ ID NO: 2))	In vitro Viability HepG2 (Hep G2 cells [3]; [15]) [%]	In vitro Viability RAW (RAW 264.7 cells [4]; [15]) [%]	In vitro Expression RAW (RAW 264.7 cells [5]; [14])	Zeta (mV) ([6]; LNP with cirRNA (SEQ ID NO: 1))	Zeta (mV) ([6]; LNP with mRNA (SEQ ID NO: 2))	In vivo Expression (Whole Body) (BALB/C mice [7]; [16])	Encapsulation Efficiency % [8] [%]	Encapsulation Efficiency [8] [%]	In vitro Viability HepG2 (Hep G2 cells [3]; [17]) [%]	In vitro Viability RAW (RAW 264.7 cells [4]; [18]) [%]	MCP-I in Sera 2 hours After 0.5 MPK Injection (MCP-I) [pg/mL]	In vitro Expression RAW (RAW 264.7 cells [5]; [19])	In vivo Expression (Whole Body) (BALB/C mice [7]; [20])	Footpad Thickness (24 h−0 h, mm) (BALB/C mice [10]) [mm]	also measured
CCCCC/C=C\CCOC(=O)CCCCCCCN(CCCCCCCC(=O)OCC/C=C\CCCCC)CCOC(=O)CCCN(C)C [Lipid C, reference compound]	8.20E+02	1.03E+04	0.1152	118.3	0.08023	139.5	103	88	4.63E+05	−1.304	8.776	4.72E+05	74	84.38							Stability of the lipid (cleavage, hydrolysis) [9]: extensive hydrolysis of the ester moiety
CCCCC/C=C\C/C=C\CCCCCCCCN(CCCCCCCC/C=C\CCCCCCCC)CCOC(=O)NCc1ncc[nH]1 [Lipid 68, 2-(((Z)-octadec-9-en-1-yl)((9Z,12Z)-octadeca-9,12-dien-1-yl)amino)ethyl ((1H-imidazol-2-yl)methyl)carbamate]	2.63E+06	3.74E+03	0.12	57.94	0.1057	61.9	100	104	5.58E+02	−0.647	5.641	1.54E+08	92	88	99	67	129.34	6.86E+05	1.34E+08	1.00	ALT in Sera (IU/L) 2 hours After 0.5 MPK Injection [11]: 40.77 IU/L; ALT in Sera (IU/L) 24 hours After 0.5 MPK Injection [11]: 33.37 IU/L; AST in Sera (IU/L) 2 hours After 0.5 MPK Injection [12]: 81.27 IU/L; AST in Sera (IU/L) 24 hours After 0.5 MPK Injection [12]: 60.20 IU/L
CCCCCCCCC(CCCCCC)C(=O)OCCCCCCCCN(CCCCCCCCCCC(=O)OCCCCCC)CCOC(=O)NCCN(C)C (centres unmarked) [Lipid 43, hexyl 10-(8-((2-hexyldecanoyl)oxy)octyl)-2-methyl-6-oxo-7-oxa-2,5,10-triazahenicosan-21-oate]	1.75E+04	1.33E+06	0.04	91.2	0.09046	67.1	97	88	9.60E+04	1.26	12.6	1.98E+08	95	88	97	97	5561.83	1.10E+05	6.22E+08	0.33	MCP-I in Sera 24 hours After 0.5 MPK Injection (MCP-I): 17.57 pg/mL; ALT in Sera (IU/L) 2 hours After 0.5 MPK Injection [11]: 57.07 IU/L; ALT in Sera (IU/L) 24 hours After 0.5 MPK Injection [11]: 41.53 IU/L; AST in Sera (IU/L) 2 hours After 0.5 MPK Injection [12]: 135.60 IU/L; AST in Sera (IU/L) 24 hours After 0.5 MPK Injection [12]: 88.97 IU/L
CCCCCCCCC(CCCCCC)C(=O)OCCCCCCCCN(CCCCCCCCOC(=O)C(CCCCCC)CCCCCCCC)CCCOC(=O)NCCCN(CC)CC (centres unmarked) [Lipid 376]	4.84E+06	5.32E+05	0.1398	102	0.07745	87.9	53	100	8.33E+04	9.074	5.722	1.56E+09	97	90.28	48	87	6397.67	1.00E+06	1.16E+08	0.89	MCP-I in Sera 24 hours After 0.5 MPK Injection (MCP-I): 561.62 pg/mL; ALT in Sera (IU/L) 2 hours After 0.5 MPK Injection [11]: 117.33 IU/L; ALT in Sera (IU/L) 24 hours After 0.5 MPK Injection [11]: 141.33 IU/L; AST in Sera (IU/L) 2 hours After 0.5 MPK Injection [12]: 434.67 IU/L; AST in Sera (IU/L) 24 hours After 0.5 MPK Injection [12]: 293.67 IU/L
